Measurements as given in patent publication US7026292B1, “Compositions and therapeutic methods using morphogenic proteins and stimulatory factors” (Stryker Corporation, priority 1995, dated 2006).

System: FRC (fetal rat calvarial) cells
Experiment: Alkaline phosphatase (AP) activity assay in FRC cells
Type: cell-based
Conditions: for MPSF function in concert with OP-1 (figure title): OP-1 200 ng/ml (FIGS. 5–10); for Stimulation of OP-1 osteogenic induction (figure title): OP-1 500 ng/ml (FIG. 1, FIG. 11)
Method: A preferred assay for testing potential MPSFs with OP-1 for osteogenic activity is the alkaline phosphatase (AP) enzymatic assay. AP is an osteoblast differentiation marker in primary osteoblastic FRC. (fetal rat calvarial) cells. The OP-1-stimulated AP activity is the result of increased steady-state AP mRNA levels as measured by Northern analysis. The procedure is generally as follows.
Primary osteoblast cell cultures were prepared from fetal rat calvaria using published procedures (M. A. Aronow et al., J. Cell Physiol., 143, pp. 213–221 (1990); T. K. McCarthy et al., J. Bone Miner. Res., 3, pp. 401–8 (1988)). Briefly, cells were harvested by sequential collagenase digestions of the calvarium and cells from digestions III to V were pooled. Fetal rat calvaria (FRC) cells were plated in complete medium (MEM, alpha; GIBCO/BRL, Grand Island, N.Y.) containing 10% fetal bovine serum, vitamin C (100 μg/ml), and antibiotics (100 U/ml penicillin, and […]). Cultures were incubated at 37° C. with 95% air/5% CO2 for several days to reach confluence. Cells were then subcultured for experimentations.
FRC cells were subcultured in 48-well plates (COSTAR, Cambridge, Mass.) in complete MEM medium with 10% fetal bovine serum until confluent in about 4 days. Confluent cells were rinsed with Hank's balanced salt solution (HBSS) and treated with serum-free α-MEM medium (with 0.1% BSA, 100 U/ml penicillin, and […]) containing the appropriate solvent vehicle (50% acetonitrile/0.1% trifluoroacetic acid for OP-1 treatment or 0.1N acetic acid for IGFI treatment) or recombinant human OP-1, or IGFI at the concentrations indicated. Solvent vehicle concentration in the culture medium never exceeded 0.1%. At the end of treatment, cells were lysed and total cellular alkaline phosphatase activity was measured (typically after 48 hours of treatment).
Total cellular alkaline phosphatase activity was determined using a commercial assay kit (Sigma, St. Louis, Mo.). Cell lysates were prepared by aspirating the medium from the 48-well plate, rinsing the cells with ice-cold PBS, and lysing the cells with 0.05% Triton X-100 and sonication for 60 sec. Alkaline phosphatase activity in the lysates was measured in 2-amino-2-methyl-1-propanol buffer (pH 10.3) with p-nitrophenyl phosphate as substrate at 37° C. Reactions were performed in 96-well plates for 1–2 h. Following color development, reactions were terminated with 0.5N NaOH. Absorbance of the reaction was measured at 405 nm using a Hewlett Packard Genenchem automatic plate reader. Total protein level in the lysates was measured according to Bradford (M. Bradford, Anal. Biochem., 72, pp. 248–54 (1976)) using bovine serum albumin as a standard. Alkaline phosphatase activity was expressed as nmol p-nitrophenol liberated per microgram of total cellular protein. […]
At least four experimental groups were tested: control cells treated with no OP-1 or MPSF; group I cells treated with increasing concentrations of MPSF alone; […]; and group III cells, […] concentrations of the MPSF.

[1] = 0.5 nM HC + 200 ng/ml OP-1, 48 hours (FIG. 7)
[2] = PG 5 nM + 200 ng/ml OP-1, 48 hours (FIG. 10)
[3] = IGF-I + OP-1 500 ng/ml (FIG. 1)
[4] = 0.05 nM or 0.5 nM insulin + 200 ng/ml OP-1, 48 hours (FIG. 8)

## C[C@]12CCC(=O)C=C1CC[C@@H]1[C@@H]2[C@@H](O)C[C@@]2(C)[C@H]1CC[C@]2(O)C(=O)CO [HC, hydrocortisone, reference compound]
[1]
  Level of AP activity relative to cells treated with OP-1 alone: about two-fold
  Level of AP activity relative to control cells: about three-fold
AP activity in FRC cells
  MPSF function in concert with OP-1 (figure title): is a MPSF in concert with OP-1
HC 0.05–5 nM alone, 48 hours (FIG. 7)
  Stimulation of AP activity by HC alone: did not stimulate AP activity

## CC(=O)[C@H]1CC[C@H]2[C@@H]3CCC4=CC(=O)CC[C@]4(C)[C@H]3CC[C@]12C [PG, progesterone, reference compound]
AP activity in FRC cells
  MPSF function in concert with OP-1 (figure title): is a MPSF in concert with OP-1
[2]
  Level of AP activity relative to cells treated with OP-1 alone: about two-fold
  Level of AP activity relative to control cells: about four-fold
PG alone 5 nM, 48 hours (FIG. 10)
  Stimulation of AP activity beyond control cells: about three-fold

## IGF-I: insulin-like growth factor I, tested as morphogenic protein stimulatory factor (MPSF)
AP activity in FRC cells
  Stimulation of OP-1 osteogenic induction (figure title): stimulates OP-1 osteogenic induction
IGF-I 10 ng/ml, OP-1 100 ng/ml (FIG. 3)
  Potentiation of OP-1-stimulated AP activity by IGF-I: 1.5–2 fold
IGF-I 25 ng/ml added 6 h or later after OP-1 500 ng/ml, 48 h (FIG. 4)
  Synergistic effect on AP level, timing of IGF-I addition: reduced significantly
IGF-I 25 ng/ml, OP-1 200 ng/ml (FIG. 3)
  Maximum enhancement of OP-1-stimulated AP activity by IGF-I: about 2.5 fold
IGF-I 1–100 ng/ml, no OP-1 (FIG. 3)
  Stimulation of AP activity by IGF-I in the absence of OP-1: did not stimulate AP activity
[3]
  Enhancement of OP-1-stimulated AP activity by IGF-I: 3–4 fold
  Kind of stimulatory effect of IGF-I on OP-1-stimulated AP activity: synergistic
IGF-I above 25 ng/ml (up to 100 ng/ml) with OP-1 (FIG. 3)
  Potentiation of OP-1-stimulated AP activity at higher IGF-I concentrations: no longer potentiates
OP-1 500 ng/ml and IGF-I 25 ng/ml added simultaneously, 48 h (FIG. 4)
  Synergistic effect on AP level, timing of IGF-I addition: maximum synergistic effect
Exogenous IGF-I alone up to 300 ng/ml, no OP-1 (FIG. 1)
  Stimulation of AP activity by IGF-I alone: did not stimulate AP activity
pre-incubation with IGF-I 25 ng/ml for 24 h followed by OP-1 500 ng/ml
  Synergistic effect on AP level, timing of IGF-I addition: abolishes the synergistic effect

## IGF-II: member of the IGF growth factor family
AP activity in FRC cells
  Stimulation of OP-1 osteogenic induction (figure title): does not stimulate OP-1-induced osteogenic induction
IGF-II 10–300 ng/ml + OP-1 500 ng/ml (FIG. 11)
  Effect of IGF-II on OP-1-stimulated increase in AP activity: neither enhanced nor inhibited
IGF-II (925 ng/ml as printed) + IGF-I 25 ng/ml + OP-1 500 ng/ml
  Effect of IGF-II on the synergistic effect of IGF-I on OP-1: does not further potentiate

## TGF-β
AP activity in FRC cells, OP-1 100, 200 or 500 ng/ml (FIG. 12)
  Stimulation of OP-1-induced osteogenic induction (figure title): does not stimulate OP-1-induced osteogenic induction
TGF-β 0.05–3.0 ng/ml with OP-1 (FIG. 12)
  Synergistic effect of TGF-β with OP-1 on AP activity: did not exhibit any synergistic effect
TGF-β alone, no OP-1 (FIG. 12)
  Stimulation of AP activity by TGF-β alone: did not stimulate AP activity

## hGH: growth hormone (hGH), purchased from Sigma
AP activity in FRC cells
  MPSF function in concert with OP-1 (figure title): is a MPSF in concert with OP-1
All hGH concentrations tested (10–1000 ng/ml) + 200 ng/ml OP-1, 48 hours (FIG. 6)
  Induction of AP activity over OP-1 alone: stimulated the induction of AP activity
Higher versus lower hGH concentrations + 200 ng/ml OP-1, 48 hours (FIG. 6)
  Concentration dependence of hGH stimulation of AP activity: more of a stimulatory effect

## insulin: insulin, purchased from Sigma
[4]
  Level of AP activity relative to cells treated with OP-1 alone: about two-fold
  Level of AP activity relative to control cells: about four-fold
AP activity in FRC cells
  MPSF function in concert with OP-1 (figure title): is a MPSF in concert with OP-1
Insulin 0.05–5 nM alone, 48 hours (FIG. 8)
  Stimulation of AP activity by insulin alone: did not stimulate AP activity
